Here are results for one molecule from patent publication US20090196930A1, “AEROSOLIZED NITRITE AND NITRIC OXIDE -DONATING COMPOUNDS AND USES THEREOF” (Aires Pharmaceuticals, Inc., priority 2007, published 2009).

The conditions of this data set: for VMD: n = 6, mean ± sd. As to the method: It was evaluated in tidal breathing mode (TBM) only.
The output characteristics of the three nebulizers (one of each type) were measured to determine the particle size distribution, inspired dose, residual dose, nebulizer output and duration of nebulization. The nebulizer efficiency, defined as the inhaled fine particle dose as a percent of the total loaded dose, was also determined. Each nebulizer was studied in duplicate, for a total of 6 measures per device type.
Particle Sizing. Nebulizers were weighed dry, full, and at the end of each study to determine gravimetric output and residual volume. Nebulizers were connected to the inhalation cell of the Insitec Laser (Malvern Instruments Ltd, Malvern, Worcestershire, UK) using a flexible airtight connector. The nebulizer and inhalation cell were oriented in a horizontal position. The output end of the inhalation cell was connected to a vacuum generator providing a continuous flow of 20 LPM across the laser beam. For measurements made with the I-neb, the output end of the inhalation cell was connected to a breath simulator, which permitted cyclic particle size measurements using the following breathing pattern: Rate=15 bpm, Volume=500 mL, I.T=2.0 seconds. This is the breathing pattern used for the output studies as well.
Each study was timed from the beginning of nebulization and run for a total of 2 minutes. During the first minute, no measurements were made to allow for equilibration of the solution. Particle sizing was begun and analyzed continuously for the duration of the 2nd minute. All data points were averaged for each measure.
1. VMD: Volume Median Diameter
2. GSD: Geometric Standard Deviation
3. %<3p: The percent of particles <3 microns
4. %<5p: The percent of particles <5 microns
5. Duration: Two minute total cycle time

Read-outs that look alike come from different tables or passages of the source.

`O=NO` [sodium nitrite]: the GSD runs as follows: (Aeroneb Go) 2.1 ± 0.1; (I-neb) 1.8 ± 0.1; (PARI STAR) 2.8 ± 0.1. The VMD runs as follows: (Aeroneb Go) 4.6 ± 0.1; (I-neb) 4.8 ± 0.5; (PARI STAR) 1.7 ± 0.1.
